The values that follow come from PubChem BioAssay (NCI).

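Test compounds were applied to cells in 96-well plates for 48 hours at 5 doses. The concentration for 50% growth inhibition is given as GI50. TGI marks complete inhibition of growth.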

Test systems include A498 renal; IGROV1 ovarian; HCT-116 colon; A549 NSCLC; SN12C renal; COLO 205 colon; LOX IMVI melanoma; SK-MEL-28 melanoma; HL-60(TB) leukemia; UO-31 renal.
Assay in all cases: NCI anticancer screen, dose series, 48 h

Turning to `O=C(O)c1nc2nc(Cl)c(Cl)nc2[nH]1`, the TGI in the assay with A498 renal, with IGROV1 ovarian, in the assay with HCT-116 colon, in the assay with A549 NSCLC, with SN12C renal and in the assay with COLO 205 colon was above 100 µM in each case. Further, the TGI with LOX IMVI melanoma, in the assay with SK-MEL-28 melanoma and in the assay on HL-60(TB) leukemia was above 100 µM each time.
For `COc1nc(NC2OC(COC(C)=O)C(OC(C)=O)C(OC(C)=O)C2OC(C)=O)c2c(OC(C)=O)cc(=O)oc2n1` (stereo not drawn), the TGI in the assay with A498 renal was 30.2 µM; in the assay with IGROV1 ovarian it was above 100 µM; with HCT-116 colon it was above 100 µM; with A549 NSCLC, above 100 µM; in the assay with UO-31 renal, above 100 µM; in the assay with SN12C renal, above 100 µM. For the same compound, the TGI in the assay on COLO 205 colon, with LOX IMVI melanoma and with HL-60(TB) leukemia was above 100 µM throughout.
Regarding `COc1cccc(-c2nc(-c3ccc(NC(=O)OC(C)C)cc3)[nH]c2-c2ccnc(Br)c2)c1`, the GI50 in the assay with A498 renal is 1.2 µM; in the assay on IGROV1 ovarian, 3.54 µM; in the assay on HCT-116 colon, 2.68 µM; with A549 NSCLC, 2.96 µM; in the assay on UO-31 renal it was 2.51 µM; in the assay on SN12C renal it was 2.94 µM. Besides, the GI50 in the assay on COLO 205 colon was 3.26 µM; in the assay on LOX IMVI melanoma, 1.49 µM; in the assay on SK-MEL-28 melanoma, 2.55 µM; in the assay on HL-60(TB) leukemia, 1.38 µM. Further, the TGI in the assay with A498 renal is 6.29 µM; in the assay with IGROV1 ovarian, above 100 µM; in the assay with HCT-116 colon, above 100 µM; in the assay with A549 NSCLC, above 100 µM; in the assay on UO-31 renal it was above 100 µM; with SN12C renal, above 100 µM. In addition, the TGI with COLO 205 colon is above 100 µM; in the assay with LOX IMVI melanoma it was 3.36 µM; in the assay on SK-MEL-28 melanoma, above 100 µM; in the assay with HL-60(TB) leukemia, 4.06 µM.
Take `CC(C)(C)c1cc2c(O)c3cccc4c(=O)c5cccc6c5-c(c34)c2c(c1)c6=O`: the TGI in the assay with A498 renal, in the assay on IGROV1 ovarian, with HCT-116 colon, in the assay with A549 NSCLC, in the assay with UO-31 renal and with SN12C renal was above 100 µM throughout. Also, the TGI with COLO 205 colon, in the assay with LOX IMVI melanoma and with HL-60(TB) leukemia was above 100 µM each time.
`Nc1n[nH]c2cc(F)c([C@@H]3Nc4ccc5[nH]ncc5c4[C@H]4C5CCC(C5)[C@@H]34)cc12` (stereo partly drawn): the GI50 with A498 renal was 0.0787 µM; in the assay with IGROV1 ovarian, 0.218 µM; with HCT-116 colon, 0.174 µM; with A549 NSCLC, 0.201 µM; with UO-31 renal, 0.651 µM; in the assay with SN12C renal, 0.228 µM. Besides, the GI50 in the assay on COLO 205 colon is 0.162 µM; in the assay on LOX IMVI melanoma, 0.158 µM; in the assay on SK-MEL-28 melanoma, 1.37 µM; with HL-60(TB) leukemia it was 0.149 µM. Moreover, the TGI is 0.288 µM with A498 renal; 15.6 µM with IGROV1 ovarian; 1.24 µM in the assay on HCT-116 colon; above 50 µM with A549 NSCLC; 30.8 µM in the assay on UO-31 renal; 37.1 µM with SN12C renal. For the same compound, the TGI with COLO 205 colon is 0.527 µM; with LOX IMVI melanoma it was 6.47 µM; with SK-MEL-28 melanoma it was 21.9 µM; in the assay with HL-60(TB) leukemia, 1.67 µM.
As for `C/C(CCn1[nH]c(=O)ccc1=O)=N\NC(=O)C(=O)NN`, the TGI in the assay with A498 renal, with IGROV1 ovarian, in the assay with A549 NSCLC, with UO-31 renal, in the assay on SN12C renal and in the assay on COLO 205 colon was above 100 µM in each case. For the same compound, the TGI with LOX IMVI melanoma, in the assay on SK-MEL-28 melanoma and in the assay on HL-60(TB) leukemia was above 100 µM each time.
With `COc1cc(-c2ccc3cc(OC)c(OC)c(OC)c3c2)cc(OC)c1OC`, the GI50 in the assay on A498 renal was 11.1 µM; with IGROV1 ovarian, 40.4 µM; in the assay on HCT-116 colon, 11.9 µM; with A549 NSCLC, 7.66 µM; in the assay with SN12C renal, above 100 µM; in the assay with COLO 205 colon, above 100 µM. Further, the GI50 in the assay with LOX IMVI melanoma, with SK-MEL-28 melanoma and in the assay with HL-60(TB) leukemia was above 100 µM in each case. In addition, the TGI is 91.8 µM with A498 renal; above 100 µM with IGROV1 ovarian; above 100 µM in the assay on HCT-116 colon; above 100 µM in the assay with A549 NSCLC; above 100 µM in the assay on SN12C renal; above 100 µM in the assay with COLO 205 colon. Further, the TGI with LOX IMVI melanoma, in the assay on SK-MEL-28 melanoma and in the assay with HL-60(TB) leukemia was above 100 µM throughout.
Consider `COC[C@H]1Cn2cc(-c3nc(Nc4ccnn4C)ncc3C)nc2C(=O)N1Cc1ccc(F)c(F)c1`, for which the GI50 with A498 renal is 0.0405 µM; with IGROV1 ovarian, 0.315 µM; with HCT-116 colon it was 0.124 µM; in the assay with A549 NSCLC, 3.23 µM; in the assay on UO-31 renal, 2.66 µM; in the assay on SN12C renal, 11.1 µM. The GI50 with COLO 205 colon is 0.0203 µM; in the assay on LOX IMVI melanoma, 0.119 µM; with HL-60(TB) leukemia, 0.471 µM. Besides, the TGI with A498 renal is 0.291 µM; in the assay on IGROV1 ovarian it was above 100 µM; with HCT-116 colon it was above 100 µM; in the assay with A549 NSCLC, above 100 µM; in the assay with UO-31 renal it was above 86.6 µM; in the assay with SN12C renal, above 100 µM. The TGI was above 100 µM with COLO 205 colon, above 100 µM in the assay on LOX IMVI melanoma and 10.6 µM in the assay on HL-60(TB) leukemia.
With `Nc1c(C(=O)Nc2cccc(C(F)(F)F)c2)sc2nc3c(cc12)CCCCC3`, the GI50 in the assay with A498 renal is 1.53 µM; in the assay on HCT-116 colon it was 1.62 µM; with A549 NSCLC, 2.25 µM; with UO-31 renal, 1.64 µM; in the assay on SN12C renal, 3.41 µM; in the assay with COLO 205 colon, 11.7 µM. Further, the figures for the GI50 in the assay on LOX IMVI melanoma, with SK-MEL-28 melanoma and with HL-60(TB) leukemia were 3.59 µM, 3.73 µM and 15.6 µM, respectively. Further, the TGI in the assay on A498 renal was 7.08 µM; in the assay with HCT-116 colon, 4.18 µM; in the assay with A549 NSCLC, 11 µM; in the assay on UO-31 renal, 4.88 µM; in the assay with SN12C renal, 19.3 µM; with COLO 205 colon it was above 100 µM. Moreover, the TGI in the assay with LOX IMVI melanoma was 58 µM; in the assay on SK-MEL-28 melanoma, 23.6 µM; in the assay on HL-60(TB) leukemia, above 100 µM.
In the case of `O=C(/C(=C/c1ccc([N+](=O)[O-])cc1)SCc1ccccc1)c1ccc(Cl)cc1`, the GI50 is 13.2 µM in the assay on A498 renal; 2.86 µM with IGROV1 ovarian; 15.1 µM in the assay on A549 NSCLC; 1.5 µM in the assay on UO-31 renal; 2.66 µM with SN12C renal; 2.14 µM with COLO 205 colon. For the same compound, the results for the GI50 in the assay on LOX IMVI melanoma, with SK-MEL-28 melanoma and in the assay with HL-60(TB) leukemia were 1.69 µM, 4.09 µM and 3.21 µM, respectively. For the same compound, the TGI in the assay with A498 renal was found to be 28.2 µM; in the assay on IGROV1 ovarian it was 11.6 µM; with A549 NSCLC, 32.2 µM; in the assay with UO-31 renal, 3.3 µM; in the assay with SN12C renal it was 8.58 µM; with COLO 205 colon it was 5.11 µM. The TGI came to 3.12 µM with LOX IMVI melanoma, 15.3 µM in the assay with SK-MEL-28 melanoma and 13.6 µM in the assay on HL-60(TB) leukemia.
For the compound `COc1ccc2nc(NC(=O)CSc3nnc4n3S(=O)(=O)c3ccccc3N4c3ccccc3)sc2c1`, the GI50 is above 100 µM in the assay with A498 renal; 5.47 µM in the assay with IGROV1 ovarian; 94.1 µM with HCT-116 colon; above 100 µM with A549 NSCLC; above 100 µM in the assay on UO-31 renal; above 100 µM in the assay with COLO 205 colon. Further, the GI50 was above 100 µM in the assay with LOX IMVI melanoma, above 100 µM with SK-MEL-28 melanoma and 91.5 µM in the assay with HL-60(TB) leukemia. The TGI in the assay on A498 renal is above 100 µM; in the assay with IGROV1 ovarian it was 55.1 µM; in the assay with HCT-116 colon it was above 100 µM; in the assay with A549 NSCLC, above 100 µM; in the assay on UO-31 renal it was above 100 µM; in the assay with COLO 205 colon, above 100 µM. For the same compound, the TGI in the assay with LOX IMVI melanoma, with SK-MEL-28 melanoma and with HL-60(TB) leukemia was above 100 µM each time.
Consider `CC(=O)CC(OC(C)=O)C1=CCC2C(CC1C)OC(=O)C2C` (stereo not drawn), for which the TGI in the assay on A498 renal, in the assay with IGROV1 ovarian, in the assay on HCT-116 colon, in the assay with A549 NSCLC, with SN12C renal and in the assay with COLO 205 colon was above 100 µM throughout. Besides, the TGI in the assay on LOX IMVI melanoma, with SK-MEL-28 melanoma and with HL-60(TB) leukemia was above 100 µM each time.
Regarding `CC(=O)NNc1nc(C)c(C(=O)/C=C/c2ccc(NC(C)=O)cc2)s1`, the TGI in the assay with A498 renal, with IGROV1 ovarian, in the assay on A549 NSCLC, with UO-31 renal, in the assay with SN12C renal and in the assay on COLO 205 colon was above 100 µM throughout. Also, the TGI in the assay with LOX IMVI melanoma, with SK-MEL-28 melanoma and with HL-60(TB) leukemia was above 100 µM in each case.
With `COc1cc(C2CC(C)(O)Oc3cc4c(cc32)OCO4)cc(OC)c1OC` (stereo not drawn), the TGI in the assay on A498 renal is above 100 µM; with IGROV1 ovarian, above 100 µM; in the assay with HCT-116 colon, above 100 µM; in the assay with A549 NSCLC, above 100 µM; with SN12C renal it was above 100 µM; in the assay with COLO 205 colon, 2.92 µM. Besides, the TGI is above 100 µM in the assay on LOX IMVI melanoma, above 100 µM with SK-MEL-28 melanoma and 0.638 µM with HL-60(TB) leukemia.
